Results as given in patent publication US20220280594A1, “APPLICATION OF POLYPEPTIDE OR DERIVATIVE THEREOF” (CHENGDU HUITAI BIOMEDICINE CO., LTD., priority 2019, published 2022).
Ends that are not written are not given here. PEG = not defined here

Legend:
[1] = tested on: human oral epidermoid carcinoma KB cells; experiment: scratch assay, migration of KB cells; assay type: cell-based; conditions: 10 μM, 48 hours, control group 54.03 ± 4.21
Description: (§1) In the scratch assay, the cell migration rate was negatively correlated with the inhibitory effect of the drug component on tumor cell migration ability. The cell migration inhibition experiment was described as follows: tumor cells were cultured in vitro, cells in logarithmic growth phase were collected and seeded evenly in a 24-well plate at a density of 1-2×10^5 cells/well; the cells were cultured in a cell incubator until a monolayer was formed; a scratch tool was used to make a “-” (straight) scratch on the monolayer of cells; the cells were washed 1-3 times with PBS, and a medium (with 2% fetal bovine serum) containing specific test components was added to the culture. Experimental grouping: PBS control group; polypeptide or derivative thereof treatment group (N1-N54), 10 μM. Three independent parallel wells were set up in each group, and the cells were cultured continuously in a cell incubator for 48 hours. […] At least 3 representative images for each well were taken. ImageJ software was used to count the migration distance of the cells, and the cell migration rate was calculated as: cell migration rate (%)=(width of original scratch−width of current scratch)/width of original scratch×100.
This example was a scratch assay to evaluate the inhibitory effect of the polypeptide or derivative thereof (N1-N54) on the migration ability of human oral epidermoid carcinoma cells (KB). The experimental method was as described in Example 2.

[2] = tested on: human pancreatic cancer cells (PANC-1); experiment: transwell migration assay, PANC-1 cells; assay type: cell-based; conditions: PANC-1 transwell migration, 10 μM, 24 hours; control group 360 ± 60
Description: (§2) The Transwell chamber system was used in the transwell cell migration experiment. The chamber has an upper layer and a lower layer, which are separated by an artificial semipermeable membrane in the middle. Cells that have migrated through the semi-permeable membrane will attach to the lower surface of the semi-permeable membrane. The migration ability is evaluated by counting the number of cells on the lower surface of the semi-permeable membrane. The number of cells that have migrated is negatively correlated with the inhibitory effect of the drug on the migration ability of the tumor cells. Transwell migration assay was performed as follows: tumor cells were cultured in vitro, cells in logarithmic growth phase were collected, and cell suspension was prepared with fresh serum-free medium at a density of 2-3×10^5 cells/mL. Cells were inoculated, 100 μL/well cell suspension (serum-free medium) in the upper chamber and 600 μL/well complete culture medium in the lower chamber. After incubated in 37° C., 5% CO2 incubator for 4-5 hours, serum-free medium (100 μL/well) was added to the control group, and serum-free medium containing polypeptide or derivative thereof (N1-N54) was added to the upper chamber of the treatment group (100 μL/well), the final concentration of the peptide or derivative thereof in the upper chamber was 10 μM. The cells were incubated continuously for 24 hours, and then fixed with methanol and stained with crystal violet. Images were taken under a microscope and the number of migrated cells was counted with ImageJ.
This example was a transwell cell migration experiment to evaluate the inhibitory effect of the polypeptide or derivative thereof (N1-N54) on the migration ability of human pancreatic cancer cells (PANC-1). The experimental method was as described in Example 3.

[3] = tested on: human lung cancer cells (95D); experiment: scratch assay, migration of 95D cells; assay type: cell-based; conditions: 10 μM, 48 hours, control group 55.3 ± 3.19
Description: as §1
This example was a scratch assay to evaluate the inhibitory effect of the polypeptide or derivative thereof (N1-N54) on the migration ability of human lung cancer cells (95D). The experimental method was as described in Example 2.

[4] = tested on: human breast cancer cells (MDA-MB-453); experiment: scratch assay, migration of MDA-MB-453 cells; assay type: cell-based; conditions: MDA-MB-453, 10 μM, 48 hours; control group 32.42 ± 2.04
Description: as §1
This example was a scratch assay to evaluate the inhibitory effect of the polypeptide or derivative thereof (N1-N54) on the migration ability of human breast cancer cells (MDA-MB-453). The experimental method was as described in Example 2.

[5] = tested on: human liver adenocarcinoma cells (SK-HEP-1); experiment: transwell migration assay, SK-HEP-1 cells; assay type: cell-based; conditions: SK-HEP-1 transwell migration, 10 μM, 24 hours; control group 1 782 ± 108, control group 2 768 ± 86
Description: as §2
This example was a transwell cell migration experiment to evaluate the inhibitory effect of the polypeptide or derivative thereof (N1-N54) on the migration ability of human liver adenocarcinoma cells (SK-HEP-1). The experimental method was as described in Example 3.

[6] = tested on: human thyroid cancer cells (FRO); experiment: scratch assay, migration of FRO cells; assay type: cell-based; conditions: 10 μM, 48 hours, control group 60.34 ± 8.32
Description: as §1
This example was a scratch assay to evaluate the inhibitory effect of the polypeptide or derivative thereof (N1-N54) on the migration ability of human thyroid cancer cells (FRO). The experimental method was as described in Example 2.

[7] = tested on: human lung squamous carcinoma cells (NCI-H226); experiment: scratch assay, migration of NCI-H226 cells; assay type: cell-based; conditions: NCI-H226, 10 μM, 48 hours; control group 65.31 ± 3.19
Description: as §1
This example was a scratch assay to evaluate the inhibitory effect of the polypeptide or derivative thereof (N1-N54) on the migration ability of human lung squamous carcinoma cells (NCI-H226). The experimental method was as described in Example 2.

[8] = tested on: human lung cancer cells (A549) subcutaneous xenograft; experiment: lung cancer subcutaneous xenograft animal model, intravenous injection; assay type: in vivo, mice (BALB/c-nu/nu); conditions: intravenous 60 mg/kg once every other day, 20 days; for Weight of tumor (g) (mean ± SD): control 2.53 ± 0.17; for Volume of tumor (mm^3) (mean ± SD): control 3373.26 ± 581.44
Description: Experimental animals: 4-6 weeks old female immunodeficiency mice (BALB/c-nu/nu, Beijing Vital River Laboratory Animal Technology Co., Ltd.).
Subcutaneous xenograft animal model. The number of cells inoculated subcutaneously vin mice was about 2×10^6/200 μL. When the volume of the subcutaneous tumor was greater than 100 mm^3, the mice were randomly divided into groups and subjected to treatment. When the mass volume of the tumors in model control group reached 2000 mm^3 or the animal dies, the treatment ended. The animals were dissected, the tumors were taken out, and the weight and volume of the tumors were measured. During the period of the entire experiment, the mice were observed and the body weight was measured every other day.
The method used in the efficacy test on the lung cancer subcutaneous xenograft animal model was as described in Example 5. The lung cancer cells were the human lung cancer cells (A549), and the route of administration was intravenous injection. This example involved a total of 3 experiments to evaluate N1-N15, N16-N30, and N31-N54 respectively. The experimental procedure, route of administration, dosage and frequency of administration, and detection method were all consistent in the three experiments. The experimental groups were model control group and polypeptide or derivative thereof treatment groups (N1-N15, N16-N30, or N31-N54). The drug dosage of the N1-N54 treatment groups was 60 mg/kg, and the treatment time was 20 days.

[9] = tested on: human non-small cell lung cancer cells (A549); experiment: scratch assay, migration of A549 cells; assay type: cell-based; conditions: A549, 10 μM, 48 hours; control group 75.31 ± 8.19
Description: as §1
This example was a scratch assay to evaluate the inhibitory effect of the polypeptide or derivative thereof (N1-N54) on the migration ability of human non-small cell lung cancer (A549). The experimental method was as described in Example 2.

Substance | Migration rate (%) (mean ± SD, P) [1] | Number of cells (mean ± SD, P), migrated cells [2] | Migration rate (%) (mean ± SD, P) [3] | Migration rate (%) (mean ± SD, P) [4] | Number of cells (mean ± SD, P), migrated cells [5] | Migration rate (%) (mean ± SD, P) [6] | Migration rate (%) (mean ± SD, P) [7] | Weight of tumor (g) (mean ± SD) [8] | Volume of tumor (mm^3) (mean ± SD) [8] | Migration rate (%) (mean ± SD, P) [9]
N13: SEQ ID NO: 1 with deletion of positions 15-18 and positions 1-5 (LAKENVTQD) | 14.53 ± 3.53,** % | 255 ± 24,* | 21.2 ± 4.41,*** % | 9.28 ± 2.43,*** % | 25 ± 12,**** | 11.99 ± 2.39,*** % | 11.29 ± 8.97,*** % | 0.8 ± 0.17 | 1320.14 ± 147.22 | 19.37 ± 9.40,** %
N17: SEQ ID NO: 1 with addition of two amino acids to the carboxyl terminal (YRVRFLAKENVTQDAEDNCT) | 14.35 ± 2.52,** % | 244 ± 14,* | 18.31 ± 8.26,** % | 4.51 ± 1.96,*** % | 50 ± 5,**** | 11.38 ± 2.27,*** % | 43.38 ± 4.83,** % | 0.9 ± 0.16 | 1301.58 ± 329.64 | 18.31 ± 9.26,** %
N50: SEQ ID NO: 1 with N18R, addition of 2 amino acid at the carboxyl terminal, PEG modification at the amino terminal ({PEG}-YRVRFLAKENVTQDAEDRCT; reading uncertain) | 15.97 ± 2.93,** % | 230 ± 11,** | 31.05 ± 4.32,** % | 18.35 ± 3.91,** % | 192 ± 16,**** | 11.80 ± 4.15,*** % | 33.20 ± 3.59,** % | 0.85 ± 0.27 | 1463.11 ± 472.43 | 57.74 ± 4.39,* %
N31: SEQ ID NO: 1 with deletion of positions 3, 4, 11 and 15-18 and PEG modification at the carboxyl terminal (YRFLAKENTQD-{PEG}; reading uncertain) | 7.17 ± 1.67,*** % | 217 ± 40,** | 25.70 ± 3.17,** % | 10.49 ± 3.13,*** % | 90 ± 6,**** | 9.77 ± 1.96,*** % | 15.70 ± 8.17,*** % | 0.62 ± 0.2 | 1439.74 ± 546.27 | 24.44 ± 8.15,** %
N47: SEQ ID NO: 1 with N18R, deletion of positions 1-2, one amino acid added and PEG at the carboxyl terminal (VRFLAKENVTQDAEDRC-{PEG}; reading uncertain) | 8.82 ± 1.89,*** % | 135 ± 10,*** | 23.86 ± 3.61,*** % | 14.66 ± 2.51,*** % | 179 ± 17,**** | 16.47 ± 3.83,** % | 53.86 ± 3.61,* % | 0.75 ± 0.39 | 1748.82 ± 508.08 | 54.66 ± 4.73,* %
N1: polypeptide with the amino acid sequence set forth in SEQ ID NO: 1 (YRVRFLAKENVTQDAEDN) | 7.49 ± 2.99,*** % | 245 ± 27,* | 27.31 ± 4.35,** % | 13.05 ± 2.05,** % | 87 ± 10,**** | 7.45 ± 2.78,*** % | 12.68 ± 9.07,*** % | 1.01 ± 0.2 | 1340.25 ± 319.59 | 18.26 ± 8.77,** %
N42: SEQ ID NO: 1 with deletion of positions 1-5 and 15-18, PEG at the amino terminal, one amino acid added at the carboxyl terminal ({PEG}-LAKENVTQDR; reading uncertain) | 8.92 ± 2.65,*** % | 236 ± 14,** | 35.42 ± 4.97,** % | 14.12 ± 9.89,** % | 106 ± 17,**** | 25.71 ± 2.79,** % | 17.46 ± 6.33,*** % | 0.83 ± 0.31 | 1149.73 ± 346.36 | 60.74 ± 3.40,* %
